PubChem BioAssay AID1259407 (Chemical Carcinogenesis Research Information System (CCRIS), 2018)
The source made the active and inactive calls. No rule for the calls is given here.

System: CCRIS mutagenicity, Ames/micronucleus/aberration tests
Assay: CCRIS mutagenicity studies
[1] = Test System: AMES SALMONELLA TYPHIMURIUM, Strain/Indicator: TA98, Metabolic Activation: NONE, Method: STANDARD PLATE
[2] = Test System: AMES SALMONELLA TYPHIMURIUM, Strain/Indicator: TA98, Metabolic Activation: RAT, LIVER, S-9, AROCLOR 1254, Method: STANDARD PLATE
[3] = Test System: AMES SALMONELLA TYPHIMURIUM, Strain/Indicator: TA100, Metabolic Activation: NONE, Method: STANDARD PLATE
[4] = Test System: AMES SALMONELLA TYPHIMURIUM, Strain/Indicator: TA100, Metabolic Activation: RAT, LIVER, S-9, AROCLOR 1254, Method: STANDARD PLATE

Measured: mutagenic call

CC(C)C[C@H]1C(=O)N2CCC[C@H]2[C@]2(O)O[C@](NC(=O)[C@@H]3C[C@@H]4c5cccc6[nH]cc(c56)C[C@H]4N(C)C3)(C(C)C)C(=O)N12
inactive: [1] inactive; negative | [2] inactive; negative | [3] inactive; negative | [4] inactive; negative | Test System: AMES SALMONELLA TYPHIMURIUM, Strain/Indicator: TA1535, Metabolic Activation: NONE, Method: STANDARD PLATE inactive; negative | Test System: AMES SALMONELLA TYPHIMURIUM, Strain/Indicator: TA1535, Metabolic Activation: RAT, LIVER, S-9, AROCLOR 1254, Method: STANDARD PLATE inactive; negative | Test System: AMES SALMONELLA TYPHIMURIUM, Strain/Indicator: TA1537, Metabolic Activation: NONE, Method: STANDARD PLATE inactive; negative | Test System: AMES SALMONELLA TYPHIMURIUM, Strain/Indicator: TA1537, Metabolic Activation: RAT, LIVER, S-9, AROCLOR 1254, Method: STANDARD PLATE inactive; negative | Test System: AMES SALMONELLA TYPHIMURIUM, Strain/Indicator: TA1538, Metabolic Activation: NONE, Method: STANDARD PLATE inactive; negative | Test System: AMES SALMONELLA TYPHIMURIUM, Strain/Indicator: TA1538, Metabolic Activation: RAT, LIVER, S-9, AROCLOR 1254, Method: STANDARD PLATE inactive; negative | Test System: MOUSE LYMPHOMA, Strain/Indicator: L5178Y (TK+/TK-), Metabolic Activation: NONE, Method: SUSPENSION/PLATE inactive; negative | Test System: MOUSE LYMPHOMA, Strain/Indicator: L5178Y (TK+/TK-), Metabolic Activation: RAT, LIVER, S-9, AROCLOR 1254, Method: SUSPENSION/PLATE inactive; negative | Test System: UDS RAT HEPATOCYTES, Strain/Indicator: THY INCORP, Metabolic Activation: NONE inactive; negative

Cc1nc2c(c3[nH]c4ccccc4c13)C(=O)C=CC2=O
active: Test System: AMES SALMONELLA TYPHIMURIUM, Strain/Indicator: TA97, Metabolic Activation: RAT, LIVER, S-9, AROCLOR 1254, Method: STANDARD PLATE active; positive | [1] active; positive | [2] active; positive
inactive: Test System: AMES SALMONELLA TYPHIMURIUM, Strain/Indicator: TA97, Metabolic Activation: NONE, Method: STANDARD PLATE inactive; negative | [3] inactive; negative | [4] inactive; negative | Test System: AMES SALMONELLA TYPHIMURIUM, Strain/Indicator: TA102, Metabolic Activation: NONE, Method: STANDARD PLATE inactive; negative | Test System: AMES SALMONELLA TYPHIMURIUM, Strain/Indicator: TA102, Metabolic Activation: RAT, LIVER, S-9, AROCLOR 1254, Method: STANDARD PLATE inactive; negative

Nc1ccc(-c2ccc([N+](=O)[O-])cc2N)c([N+](=O)[O-])c1
active: Test System: AMES SALMONELLA TYPHIMURIUM, Strain/Indicator: TA98, Metabolic Activation: NONE, Method: PREINCUBATION active; positive | Test System: AMES SALMONELLA TYPHIMURIUM, Strain/Indicator: TA98, Metabolic Activation: RAT, LIVER, S-9, KANECHLOR 500, Method: PREINCUBATION active; positive

c1ccc2c(OCC3CO3)nsc2c1 (centres undefined)
active: [3] active; positive

N#C/C(=C/C=C/c1ccccc1)c1ccccc1Cl
active: [3] active; positive

NC(=O)CCC(=O)Nc1ccc(Cl)cc1
inactive: [1] inactive; negative | [2] inactive; negative | [3] inactive; negative | [4] inactive; negative

CCOC(=O)Nc1cccc(OC(=O)Nc2ccccc2)c1
inactive: Test System: Ames Salmonella typhimurium, Strain/Indicator: TA98, Metabolic Activation: None inactive; negative | Test System: Ames Salmonella typhimurium, Strain/Indicator: TA98, Metabolic Activation: Rat, Liver, S-9 inactive; negative | Test System: Ames Salmonella typhimurium, Strain/Indicator: TA100, Metabolic Activation: None inactive; negative | Test System: Ames Salmonella typhimurium, Strain/Indicator: TA100, Metabolic Activation: Rat, Liver, S-9 inactive; negative | Test System: Ames Salmonella typhimurium, Strain/Indicator: TA1535, Metabolic Activation: None inactive; negative | Test System: Ames Salmonella typhimurium, Strain/Indicator: TA1535, Metabolic Activation: Rat, Liver, S-9 inactive; negative | Test System: Ames Salmonella typhimurium, Strain/Indicator: TA1537, Metabolic Activation: None inactive; negative | Test System: Ames Salmonella typhimurium, Strain/Indicator: TA1537, Metabolic Activation: Rat, Liver, S-9 inactive; negative | Test System: E. coli, Strain/Indicator: WP2, Metabolic Activation: None, Method: Not reported by DPR inactive; negative | Test System: E. coli, Strain/Indicator: WP2, Metabolic Activation: Rat, Liver, S-9, Method: Not reported by DPR inactive; negative
